# Assays:
# progesterone receptor-B [1] = target: T1, progesterone receptor-B (Homo sapiens, UniProt P06401); assay: Progesterone receptor-B transactivation, agonistic mode (CHO cells, luciferase); type: cell-based; settings: for EC50: CHO cells, agonistic mode, read-out: PRBagoEC50; for Emax: CHO, read-out: PRBago Eff (%)
# T1 sequence (P06401 1-933): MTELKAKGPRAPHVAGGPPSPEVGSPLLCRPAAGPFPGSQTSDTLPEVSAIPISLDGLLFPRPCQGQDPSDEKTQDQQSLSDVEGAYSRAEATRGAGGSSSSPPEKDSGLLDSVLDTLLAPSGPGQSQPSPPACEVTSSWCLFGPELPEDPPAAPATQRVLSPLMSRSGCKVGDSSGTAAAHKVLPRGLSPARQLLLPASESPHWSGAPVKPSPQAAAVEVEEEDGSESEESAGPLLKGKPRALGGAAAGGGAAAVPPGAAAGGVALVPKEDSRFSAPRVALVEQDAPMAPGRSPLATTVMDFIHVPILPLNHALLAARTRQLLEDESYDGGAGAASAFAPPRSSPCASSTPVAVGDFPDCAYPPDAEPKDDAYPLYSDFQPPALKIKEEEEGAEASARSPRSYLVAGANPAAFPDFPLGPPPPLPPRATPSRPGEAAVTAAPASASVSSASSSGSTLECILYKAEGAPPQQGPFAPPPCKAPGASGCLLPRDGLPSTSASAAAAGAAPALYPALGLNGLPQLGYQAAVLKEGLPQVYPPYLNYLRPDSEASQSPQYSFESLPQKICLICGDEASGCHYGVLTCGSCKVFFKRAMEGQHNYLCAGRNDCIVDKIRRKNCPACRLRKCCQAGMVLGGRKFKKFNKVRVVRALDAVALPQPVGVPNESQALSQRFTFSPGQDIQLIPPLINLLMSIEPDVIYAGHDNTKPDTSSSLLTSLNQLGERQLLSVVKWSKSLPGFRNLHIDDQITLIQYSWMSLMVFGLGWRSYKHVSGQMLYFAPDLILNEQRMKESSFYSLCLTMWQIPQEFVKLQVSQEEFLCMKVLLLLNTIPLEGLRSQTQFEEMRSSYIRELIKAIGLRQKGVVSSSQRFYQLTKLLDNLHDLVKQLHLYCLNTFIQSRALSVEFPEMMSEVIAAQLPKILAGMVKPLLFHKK
# Source text: For selecting compounds of the subject invention with a mixed modulating effect on the progesterone receptor, testing in the agonistic mode must result in an intrinsic activity of between about 15% and about 85% of the maximal activity when (16α)-16-ethyl-21-hydroxy-19-norpregn-4-ene-3,20-dione is used as a reference. Moreover, this maximal agonistic activity should be reached at a concentration of 10^−6 or less, and preferably at a concentration of 10^−8 or less.
# (§1) The progestagenic activity of a compound of the invention (EC50 and intrinsic agonistic activity) was determined in an in vitro bioassay of Chinese hamster ovary (CHO) cells as described by W. G. E. J. Schoonen et al. (Anal. Biochem. 261 (1998), 222-224). […] The efficacy of the antagonistic effect was expressed as the percentage of the effect produced by a standard antagonist, (6β,11β,17β)-11-[4-(dimethylamino)phenyl]-4′,5′-dihydro-6-methylspiro[estra-4,9-diene-17,2′(3′H)-furan]-3-one.
# (§2) It will be recognized by those skilled in the art that, in the setting described above, the EC50 determined is more or less absolute and depends on the intrinsic property of the tested compound itself, however, the IC50 depends on the amount and agonistic EC50 of the inducer as well as on the intrinsic property of the tested compound itself. Thus, with the same amount of inducer, a relatively strong antagonist will be able to produce a measurable IC50 whereas a relatively weak antagonist may fail to produce a detectable result.
# progesterone receptor-B [2] = target: T1, progesterone receptor-B; assay: Progesterone receptor-B transactivation, antagonistic mode (inhibition of luciferase transactivation by inducer, CHO cells); type: cell-based; settings: for Emax: CHO, read-out: PRBant Eff (%); for EC50: in the presence of 0.1 nM inducer (16α)-16-ethyl-21-hydroxy-19-norpregn-4-ene-3,20-dione, read-out: PRBant EC50
# Experimental: In the antagonistic mode, testing must result in an intrinsic activity of between about 85% and about 15% of the maximal activity when (6β,11β,17β)-11-[4-(dimethylamino)phenyl]-4′,5′-dihydro-6-methylspiro[estra-4,9-diene-17,2′(3′H)-furan]-3-one is used as a reference.
# as §1, §2
# [3] = intrinsic agonistic activity, relative to reference (16α)-16-ethyl-21-hydroxy-19-norpregn-4-ene-3,20-dione
# [4] = intrinsic antagonistic activity, percentage of effect of standard antagonist (6β,11β,17β)-11-[4-(dimethylamino)phenyl]-4′,5′-dihydro-6-methylspiro[estra-4,9-diene-17,2′(3′H)-furan]-3-one, 0.1 nM inducer
SMILES,EC50 (progesterone receptor-B [1]) [nM],Emax (progesterone receptor-B [1]; [3]) [%],Emax (progesterone receptor-B [2]; [4]) [%],EC50 (progesterone receptor-B [2]) [nM],PRBago Eff (%) (progesterone receptor-B [1]; [3]),PRBant Eff (%) (progesterone receptor-B [2]; [4])
"C[C@@H]1C[C@H]2[C@@H]3CCC4=CC(=O)CCC4=C3[C@@H](c3ccc(-c4ccncc4)cc3)C[C@]2(C)[C@H]1C(=O)C1CC1 [Example 12, (11β,16α,17β)-17-cyclopropylcarbonyl-16-methyl-11-[4-(4-pyridinyl)phenyl]estra-4,9-dien-3-one]",4,56,26.5,2.5,,
"COc1ccc(-c2ccc([C@H]3C[C@@]4(C)[C@@H](C[C@@H](C)[C@@H]4C(=O)C4CC4)[C@@H]4CCC5=CC(=O)CCC5=C43)cc2)cn1 [Example 3, (11β,16α,17β)-17-cyclopropylcarbonyl-11-[4-(6-methoxypyridin-3-yl)phenyl]-16-methylestra 4,9-dien-3-one]",0.12,41.5,59,0.628,,
"C[C@@H]1C[C@@H]2C(=C3CCC(=O)C=C31)[C@@H](c1ccc(-c3cccnc3)cc1)C[C@@]1(C)[C@H]2C[C@@H](C)[C@@H]1C(=O)C1CC1 [Example 26, (6β,11β,16α,17β)-17-cyclopropylcarbonyl-6,16-dimethyl-11-[4-(3-pyridinyl)-phenyl]estra-4,9-dien-3-one]",0.809,46,17,2.75,,
"C[C@]12C[C@H](c3ccc(-c4cccnc4)cc3)C3=C4CCC(=O)C=C4CC[C@H]3[C@@H]1CC[C@]2(C)C(=O)C1CC1 [Example 20, (11β,17β)-17-cyclopropylcarbonyl-17-methyl-11-[4-(3-pyridinyl)-phenyl]estra-4,9-dien-3-one]",0.49,37.5,58,0.13,,
"CC[C@@H]1C[C@H]2[C@@H]3CCC4=CC(=O)CCC4=C3[C@@H](c3ccc(-c4cccnc4)cc3)C[C@]2(C)[C@H]1C(=O)C1CC1 [Example 16, (11β,16α,17β)-17-cyclopropylcarbonyl-16-ethyl-11-[4-(3-pyridinyl)-phenyl]-estra-4,9-dien-3-one]",0.23,34,53,0.596,,
"C[C@@H]1C[C@H]2[C@@H]3CCC4=CC(=O)CCC4=C3[C@@H](c3ccc(-c4cccnc4)cc3)C[C@]2(C)[C@H]1C(=O)C1CC1.Cl [Example 2, (11β,16α,17β)-17-cyclopropylcarbonyl-16-methyl-11-[4-(3-pyridinyl)-phenyl]estra-4,9-dien-3-one hydrochloride]",0.34,,,3.3,44.5,47
"C[C@@H]1C[C@H]2[C@@H]3CCC4=CC(=O)CCC4=C3[C@@H](c3ccc(-c4ccnnc4)cc3)C[C@]2(C)[C@H]1C(=O)C1CC1 [Example 8, (11β,16α,17β)-17-cyclopropylcarbonyl-16-methyl-11-[4-(4-pyridazinyl)phenyl]estra-4,9-dien-3-one]",0.36,50.5,37,3.64,,
"C=C[C@@H]1C[C@H]2[C@@H]3CCC4=CC(=O)CCC4=C3[C@@H](c3ccc(-c4cccnc4)cc3)C[C@]2(C)[C@H]1C(=O)C1CC1 [Example 13, (11β,16α,17β)-17-cyclopropylcarbonyl-16-ethenyl-11-[4-(3-pyridinyl)phenyl]estra-4,9-dien-3-one]",0.66,46.8,38,0.61,,
"C[C@]12C[C@H](c3ccc(-c4cccnc4)cc3)C3=C4CCC(=O)C=C4CC[C@H]3[C@@H]1C[C@H]1C[C@]12C(=O)C1CC1 [Example 21, (11β,16α,17β)-17-cyclopropylcarbonyl-16,17-dihydro-11-[4-(3-pyridinyl)phenyl]-3′H-cyclopropa[16,17]estra 4,9,16-trien-3-one]",2,18,58,1.4,,
"CC12CC(c3ccc(-c4cccnc4)cc3)C3=C4CCC(=O)C=C4CCC3C1CCC21CCCC1=O (stereo not drawn) [Example 23, (11β)-11-[4-(3-pyridinyl)phenyl]-17,24-cyclo-19,21-dinorchola 4,9-diene-3,20-dione]",0.29,17,70.8,0.325,,

# Reference: patent publication US7691836B2, “Progesterone receptor modulators” (N.V. Organon, priority 2004, dated 2010)
